These results are taken from the Kinase Knowledgebase extract (Sharma et al. 2016).

This assay has as its target MAPK14 (human) (UniProt Q16539). Kind of assay: Assessment of MAPK14 Kinase Activity.

Chain of MAPK14 (human) (Q16539 whole entry, looked up): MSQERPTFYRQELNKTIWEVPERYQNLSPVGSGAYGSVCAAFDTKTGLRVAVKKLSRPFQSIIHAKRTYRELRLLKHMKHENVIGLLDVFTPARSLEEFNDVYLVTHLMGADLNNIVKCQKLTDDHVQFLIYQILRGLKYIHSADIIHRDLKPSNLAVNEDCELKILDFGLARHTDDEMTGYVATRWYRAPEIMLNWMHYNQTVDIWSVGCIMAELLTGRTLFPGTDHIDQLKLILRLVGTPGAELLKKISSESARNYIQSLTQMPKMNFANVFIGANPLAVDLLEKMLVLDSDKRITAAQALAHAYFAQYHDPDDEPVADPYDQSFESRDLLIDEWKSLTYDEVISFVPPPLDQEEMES

As a reminder, the IC50 is the concentration that gives 50% inhibition. Low readings indicate inhibition by little substance, high ones a need for much substance. `OCCC(CO)Nc1nccc(-c2c(-c3ccc(F)cc3)nc3sccn23)n1` (configuration not stated) returned an IC50 of 87.1 nM.
Turning to `CS(=O)(=O)c1nccc(-c2c(-c3ccc(F)c(F)c3)nc3sccn23)n1`, the IC50 is 10000 nM.
Under `CCCCCOc1nccc(-c2c(-c3ccc(F)cc3)nc3sccn23)n1` stands 890 nM.
Under `C[C@@H](CO)Nc1nccc(-c2c(-c3ccc(F)cc3)nc3occn23)n1` stands 34.8 nM.
`C[C@@H](O)CNc1nccc(-c2c(-c3ccc(F)cc3)nc3occn23)n1` came in with an IC50 of 37.1 nM.
For `O[C@@H](CNc1nccc(-c2c(-c3ccc(F)cc3)nc3occn23)n1)c1ccccc1`, the IC50 came out at 8.96 nM.
Under `Fc1ccc(-c2nc3sccn3c2-c2ccnc(N3CCCCC3)n2)cc1` stands 527 nM; under `Cc1ccc(-c2nc3sccn3c2-c2ccnc(S(C)(=O)=O)n2)cc1`, 10000 nM.
Next, `CC(C)(C)OC(=O)N1CCC[C@H]1CNc1nccc(-c2c(-c3ccc(F)cc3)nc3sccn23)n1`: 7.26 nM; `COc1cccc(-c2nc3sccn3c2-c2nc(SC)ncc2-c2ccccc2)c1`: over 10000 nM.
Under `COc1cccc(-c2nc3sccn3c2-c2ccnc(S(C)(=O)=O)n2)c1` stands 10000 nM.
For the compound `Fc1ccc(Cl)c(-c2nc3occn3c2-c2ccnc(N[C@@H]3CN4CCC3CC4)n2)c1`, the IC50 stood at 6.8 nM.
